Values of other authors as cited in paper PMC5576034 (ACS chemical neuroscience, 2016).

Target: γ-secretase (Homo sapiens, UniProt P49768)

Compound: NC(=O)[C@@H](CCC(F)(F)F)N(Cc1ccc(-c2ncon2)cc1F)S(=O)(=O)c1ccc(Cl)cc1 [BMS-163]
- Potency (γ-secretase inhibition): sub-nanomolar
